Results from US8759504B2, “Cholinergic/serotoninergic receptor and uses thereof” (AbbVie Inc., priority 2007, dated 2014).
Entries after “also recorded” stand apart in the source; their conditions may differ. Marks after values point to notes of the source that are not given here.

Tests used:
Chimera 2 [1] = biological target: T1, Chimera 2 (Homo sapiens, UniProt P36544, M226I/T225V); assay: Whole cell patch clamp in HEK-293 cells; assay type: cell-based; parameters: expressed in transfected cells
Chimera 1 [2] = biological target: T2, Chimera 1 (Homo sapiens, UniProt P36544, M226I/T225V); assay: Two electrode voltage clamp in Xenopus oocytes (POETs), agonist and modulator responses; assay type: cell-based; parameters: expressed in transfected cells; host or cells: Xenopus laevis oocytes (transient, A1)
Chimera 2 [3] = biological target: T1, Chimera 2; assay: Membrane potential imaging (FLIPR-FMP) in HEK-293 cells; assay type: cell-based; parameters: expressed in transfected cells; conditions: for Modulation of submaximum agonist-evoked membrane potential response (words): HEK-293 cells, FMP
[4] = biological target: T3, wild-type α7 nicotinic acetylcholine receptor (Homo sapiens, UniProt P36544); assay: Two electrode voltage clamp in Xenopus oocytes, agonist and modulator responses; assay type: cell-based
T3 construct: expressed in transfected cells; host or cells: Xenopus laevis oocytes

[5] = biological target: T4, wild-type human 5-HT3A receptors (Homo sapiens, UniProt P46098); assay: as above; assay type: cell-based
T4 construct: expressed in transfected cells; host or cells: Xenopus laevis oocytes
T4 sequence (P46098 1-484 isoform P46098-4): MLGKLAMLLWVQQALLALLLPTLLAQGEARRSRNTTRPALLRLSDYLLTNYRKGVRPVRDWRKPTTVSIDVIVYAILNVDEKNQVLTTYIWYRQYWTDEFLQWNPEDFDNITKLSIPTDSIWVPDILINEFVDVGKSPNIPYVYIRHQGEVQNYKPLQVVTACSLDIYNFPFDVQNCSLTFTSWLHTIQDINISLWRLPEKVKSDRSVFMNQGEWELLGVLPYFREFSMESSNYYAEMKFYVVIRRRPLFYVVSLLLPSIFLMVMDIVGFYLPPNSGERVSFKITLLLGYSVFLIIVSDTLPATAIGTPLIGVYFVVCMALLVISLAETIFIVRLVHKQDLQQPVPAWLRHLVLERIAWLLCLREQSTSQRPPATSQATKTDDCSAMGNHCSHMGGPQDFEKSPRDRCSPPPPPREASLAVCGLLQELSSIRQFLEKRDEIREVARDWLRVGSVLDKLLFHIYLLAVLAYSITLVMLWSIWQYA

[6] = biological target: T5, rat brain α7* nicotinic acetylcholine receptors (Rattus norvegicus, UniProt Q05941); assay: [3H]A-585539 radioligand binding, rat brain homogenates
T5 construct: expressed both as a native (rat cortex) or α7/5-HT3 chimeric receptor; from tissue; host or cells: rat brain / rat cortex homogenates

Chimera 1 [7] = biological target: T2, Chimera 1; assay: Membrane potential imaging (FLIPR-FMP) in HEK-293 cells; assay type: cell-based; parameters: expressed in transfected cells; conditions: for Modulation of submaximum agonist-evoked membrane potential response (words): HEK-293 cells, FMP
Chimera 2 [8] = biological target: T1, Chimera 2; assay: [3H]A-585539 radioligand binding, HEK-293 membranes/homogenates; parameters: expressed in transfected cells
Chimera 2 [9] = biological target: T1, Chimera 2; assay: Two electrode voltage clamp in Xenopus oocytes (POETs), agonist and modulator responses; assay type: cell-based; parameters: expressed in transfected cells; host or cells: Xenopus laevis oocytes (transient, A2)

T1 sequence (P36544 with tags, fused parts or gaps T225V/M226I): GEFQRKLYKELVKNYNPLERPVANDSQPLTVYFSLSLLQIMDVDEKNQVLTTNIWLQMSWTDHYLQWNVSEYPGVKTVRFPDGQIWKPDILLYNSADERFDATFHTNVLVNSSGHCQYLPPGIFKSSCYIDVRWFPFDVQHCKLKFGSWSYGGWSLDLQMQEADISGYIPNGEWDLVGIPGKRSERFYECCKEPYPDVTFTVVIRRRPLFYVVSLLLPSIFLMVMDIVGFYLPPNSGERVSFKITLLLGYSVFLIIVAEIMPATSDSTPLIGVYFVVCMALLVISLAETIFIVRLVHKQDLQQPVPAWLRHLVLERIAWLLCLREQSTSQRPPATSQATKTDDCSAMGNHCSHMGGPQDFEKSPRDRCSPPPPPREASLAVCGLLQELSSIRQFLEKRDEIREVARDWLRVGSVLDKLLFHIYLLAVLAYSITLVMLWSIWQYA
T5 sequence (Q05941 23-502): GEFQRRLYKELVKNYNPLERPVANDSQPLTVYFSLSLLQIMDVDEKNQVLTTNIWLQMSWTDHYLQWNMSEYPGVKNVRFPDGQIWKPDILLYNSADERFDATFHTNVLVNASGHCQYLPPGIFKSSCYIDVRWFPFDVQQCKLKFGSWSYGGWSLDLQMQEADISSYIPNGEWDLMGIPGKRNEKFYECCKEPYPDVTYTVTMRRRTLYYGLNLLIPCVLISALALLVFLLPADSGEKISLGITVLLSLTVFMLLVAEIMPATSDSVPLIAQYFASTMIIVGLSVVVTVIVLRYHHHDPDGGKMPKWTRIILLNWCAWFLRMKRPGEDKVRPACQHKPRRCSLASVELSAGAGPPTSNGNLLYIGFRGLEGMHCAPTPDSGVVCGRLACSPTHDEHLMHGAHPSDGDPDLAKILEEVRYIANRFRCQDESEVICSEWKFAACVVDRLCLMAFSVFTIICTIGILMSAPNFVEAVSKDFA
T2 sequence (P36544 with tags, fused parts or gaps T225V/M226I): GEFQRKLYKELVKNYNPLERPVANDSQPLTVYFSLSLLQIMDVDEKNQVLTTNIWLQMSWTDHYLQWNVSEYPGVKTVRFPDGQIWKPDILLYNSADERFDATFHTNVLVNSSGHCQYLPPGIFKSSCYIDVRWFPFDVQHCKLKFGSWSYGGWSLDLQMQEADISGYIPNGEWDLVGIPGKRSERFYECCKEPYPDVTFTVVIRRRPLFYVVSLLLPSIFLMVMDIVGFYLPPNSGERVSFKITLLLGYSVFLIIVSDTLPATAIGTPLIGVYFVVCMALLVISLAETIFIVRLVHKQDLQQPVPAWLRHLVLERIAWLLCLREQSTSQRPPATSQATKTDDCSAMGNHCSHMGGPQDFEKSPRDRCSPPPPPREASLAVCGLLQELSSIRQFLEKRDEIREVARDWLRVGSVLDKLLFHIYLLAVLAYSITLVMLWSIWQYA
T3 sequence (P36544 23-502): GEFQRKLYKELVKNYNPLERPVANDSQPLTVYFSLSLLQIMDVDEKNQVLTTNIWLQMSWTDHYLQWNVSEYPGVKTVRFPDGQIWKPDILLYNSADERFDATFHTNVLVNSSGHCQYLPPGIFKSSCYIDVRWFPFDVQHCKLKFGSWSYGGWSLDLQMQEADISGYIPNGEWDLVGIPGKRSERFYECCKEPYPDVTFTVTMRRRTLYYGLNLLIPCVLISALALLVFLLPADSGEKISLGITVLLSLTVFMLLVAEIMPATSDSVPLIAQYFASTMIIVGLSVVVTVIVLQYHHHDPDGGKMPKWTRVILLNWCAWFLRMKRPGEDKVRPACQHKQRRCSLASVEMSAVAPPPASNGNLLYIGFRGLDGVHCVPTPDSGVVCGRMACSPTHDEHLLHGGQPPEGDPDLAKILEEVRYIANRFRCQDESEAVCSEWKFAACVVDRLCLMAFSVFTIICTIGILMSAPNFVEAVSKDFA

O=c1c(-c2ccc(O)cc2)coc2cc(O)cc(O)c12 [Genistein, genistein]
Directly evoked peak response normalized to 100 μM ACh (Chimera 2 [1]; 100 μM): 72.6±22.2% | Directly evoked total charge (integral) normalized to 100 μM ACh (Chimera 2 [1]; 100 μM): 162.5±5.3% | Direct current activation by modulator alone (Chimera 2 [1]; genistein 100 μM, 5-HI 10 mM): directly activated the Chimera 2 receptor current | Positive allosteric modulation of ACh-evoked current (Chimera 2 [1]; genistein 30-50 μM, 5-HI 1 mM): effective as positive allosteric modulators | Percentage potentiation of submaximum agonist-evoked responses (mean±S.E.M.) (Chimera 1 [2]; 100 μM ACh): 65±27% | Direct current activation by modulator alone (Chimera 1 [2]; Xenopus oocytes): did not activate currents | inhibition at 100 µM (Chimera 1 [2]; read-out: Observed % inhibitory effect on submaximum ACh-evoked response): ~35% | Modulation of submaximum agonist-evoked membrane potential response (words) (Chimera 2 [3]): enhanced agonist-evoked depolarization | Modulation of submaximum agonist-evoked membrane potential response (words) (Chimera 2 [3]; listed as genestein): very effective | Modulation of submaximum agonist-evoked membrane potential response (words) (Chimera 2 [3]; listed as genistein): potentiated submaximum NS6784 evoked responses; also recorded: potentiated Chimera 2 receptors | EC50 (Chimera 2 [3]; read-out: FMP imaging: positive allosteric modulation EC50 (95% C.I.), submaximum NS6784 (60-70 nM)): 4.3 µM | Maximum positive allosteric modulation efficacy (Chimera 2 [3]; submaximum NS6784 60-70 nM): 221±30% | Percentage potentiation of submaximum agonist-evoked responses (mean±S.E.M.) ([4]; 100 μM ACh): 246±17% | EC50 ([4]; Positive allosteric modulation potency, two electrode voltage clamp: EC50 (95% C.I.), submaximum ACh (100 μM)-evoked response): 10.6 µM | Direct current activation by modulator alone ([4]; Xenopus oocytes): did not activate currents | Effect of modulator on ACh-evoked current (words) ([4]; Xenopus oocytes): primarily increasing the current amplitude | Fold increase of submaximum ACh-evoked currents ([4]; Xenopus oocytes): 2-3 fold | Percentage potentiation of submaximum agonist-evoked responses (mean±S.E.M.) ([5]; 1-3 μM 5-HT): 52±7% | Direct current activation by modulator alone ([5]; Xenopus oocytes): did not activate currents | Effect of modulator on agonist (5-HT)-evoked current ([5]; Xenopus oocytes): Neither compound increased the responses | Observed % inhibitory effect on submaximum 5-HT-evoked response ([5]; at 30 μM): ~48%^a at 30 | inhibition at 30 µM ([5]; at 30 μM, read-out: Observed % inhibitory effect on submaximum 5-HT-evoked response): ~50% | Effect on [3H]A-585539 saturation binding ([6]; 10 μM): did not alter the saturation profile; also recorded: did not alter the saturation binding | Competition / displacement of [3H]A-585539 binding ([6]; rat cortex, increasing concentrations): neither compound effectively displaced the binding | Modulation of submaximum agonist-evoked membrane potential response (words) (Chimera 1 [7]): unable to do so | Modulation of submaximum agonist-evoked membrane potential response (words) (Chimera 1 [7]; listed as genistein): not effective as positive allosteric modulator; also recorded: inhibited Chimera 1 | IC50 (Chimera 1 [7]; read-out: FMP imaging: IC50 (95% C.I.), inhibition of agonist-evoked response, submaximum NS6784): 23.3 µM | Maximum positive allosteric modulation efficacy (Chimera 1 [7]; submaximum NS6784 120-200 nM): 14±3% | Effect on [3H]A-585539 saturation binding (Chimera 2 [8]; 10 μM): did not alter the saturation profile; also recorded: did not alter the saturation binding | Competition / displacement of [3H]A-585539 binding (Chimera 2 [8]; increasing concentrations): neither compound effectively displaced the binding | Percentage potentiation of submaximum agonist-evoked responses (mean±S.E.M.) (Chimera 2 [9]; 10-30 μM ACh): 234±19% | Direct current activation by modulator alone (Chimera 2 [9]; Xenopus oocytes): activated currents at 30 and 100 μM; also recorded: evoked unique agonist-like current | Effect of modulator on ACh-evoked current (words) (Chimera 2 [9]; Xenopus oocytes): potentiated peak amplitude of ACh current responses | Fold increase of submaximum ACh-evoked currents (Chimera 2 [9]; Xenopus oocytes): 2-3 fold | Effect of modulator on ACh-evoked current (words) (Chimera 2 [9]; Xenopus oocytes, listed as genestein): potentiated ACh responses in Chimera 2 | EC50 (Chimera 2 [9]; read-out: Positive allosteric modulation potency, two electrode voltage clamp: EC50 (95% C.I.)): 5.2 µM
